Data reported in the SangsterLogP compilation.

| SMILES | logP |
| --- | --- |
| CC(=O)NCCCC(=O)NCc1ccccc1 | 1.01 |
| CC(=O)NC(CC(C)C)C(=O)NCc1ccccc1 (centres undefined) | 2.31 |
| CC(=O)N[C@@H](Cc1c[nH]c2ccccc12)C(=O)NCc1ccccc1 | 2.17 |
| CC(=O)N(C)CCC(=O)NCc1ccccc1 | 1.12 |
| O=C(NC(O)C(=O)O)OCc1ccccc1 (centres undefined) | 1.63 |
| CC(C(=O)NCc1ccccc1)N(C)C(=O)OC(C)(C)C (centres undefined) | 2.94 |
| CNC(C)C(=O)NCc1cccnc1 (centres undefined) | 0.05 |
| CN1CSCC1C(=O)NCc1ccccc1 (centres undefined) | 1.85 |
| CNCCC(=O)NCc1ccccc1 | 1.01 |
| CNC(C)C(=O)NCc1ccco1 (centres undefined) | -0.66 |
| CC(=O)NC(C)(C)C(=O)NCc1ccccc1 | 1.32 |
| CC(=O)N(C)C(C)C(=O)NCc1ccco1 (centres undefined) | -0.55 |
| CN[C@H](C)C(=O)NCc1ccc(OC)cc1 | 1.11 |
| CC(=O)NCCC(=O)NCc1ccccc1 | 0.76 |
| CC(=O)NC(C)C(=O)NCC(C)C (centres undefined) | 0.56 |
| CC(=O)NC(C)C(=O)NCCC(C)C (centres undefined) | 0.88 |
| CC(C(=O)NCc1ccccc1)N(C)C (centres undefined) | 1.73 |
| CC(NC(=O)OCc1ccccc1)C(=O)OCc1ccccc1 (centres undefined) | 3.84 |
| CC(NC(=O)OCc1ccccc1)C(=O)NCc1ccccc1 (centres undefined) | 3.52 |
| CCNC(C)C(=O)NCc1ccccc1 (centres undefined) | 1.71 |
| CC(=O)NC(Cc1ccc(Cl)cc1)C(=O)NCc1ccccc1 (centres undefined) | 3.72 |
| CC(=O)N(C)C(C)C(=O)NCc1ccccc1 (centres undefined) | 1.48 |
| CC(=O)NC(CCCNC(=N)N[N+](=O)[O-])C(=O)NCc1ccccc1 (centres undefined) | 0.45 |
| CN[C@H](C)C(=O)NCc1ccc(F)cc1 | 1.51 |
| CC(=O)N1CSCC1C(=O)NCc1ccccc1 (centres undefined) | 1.29 |
| CCCCNC(=O)C(C)NC(C)=O (centres undefined) | 0.55 |
| CC(=O)N1CCC[C@@H]1C(=O)NCc1ccccc1 | 1.46 |
| O=C(NC(CCC1CCCCC1)C(=O)OCCC1CCCCC1)OCc1ccccc1 (centres undefined) | 6.39 |
| CC(=O)N(C)CC(=O)NCc1ccccc1 | 0.94 |
